Key:
HDAC6 = target: T1, HDAC6 (Homo sapiens, UniProt Q9UBN7); experiment: HDAC enzyme activity assay (fluorogenic, Boc-Lys(acetyl)-AMC), HDAC6; type: biochemical; conditions: class IIb HDAC6; mean ± SD, triplicate
T1 construct: Full-length recombinant HDAC6 was purchased from BPS Bioscience; purchased BPS Bioscience
T1 sequence (Q9UBN7 1-1215): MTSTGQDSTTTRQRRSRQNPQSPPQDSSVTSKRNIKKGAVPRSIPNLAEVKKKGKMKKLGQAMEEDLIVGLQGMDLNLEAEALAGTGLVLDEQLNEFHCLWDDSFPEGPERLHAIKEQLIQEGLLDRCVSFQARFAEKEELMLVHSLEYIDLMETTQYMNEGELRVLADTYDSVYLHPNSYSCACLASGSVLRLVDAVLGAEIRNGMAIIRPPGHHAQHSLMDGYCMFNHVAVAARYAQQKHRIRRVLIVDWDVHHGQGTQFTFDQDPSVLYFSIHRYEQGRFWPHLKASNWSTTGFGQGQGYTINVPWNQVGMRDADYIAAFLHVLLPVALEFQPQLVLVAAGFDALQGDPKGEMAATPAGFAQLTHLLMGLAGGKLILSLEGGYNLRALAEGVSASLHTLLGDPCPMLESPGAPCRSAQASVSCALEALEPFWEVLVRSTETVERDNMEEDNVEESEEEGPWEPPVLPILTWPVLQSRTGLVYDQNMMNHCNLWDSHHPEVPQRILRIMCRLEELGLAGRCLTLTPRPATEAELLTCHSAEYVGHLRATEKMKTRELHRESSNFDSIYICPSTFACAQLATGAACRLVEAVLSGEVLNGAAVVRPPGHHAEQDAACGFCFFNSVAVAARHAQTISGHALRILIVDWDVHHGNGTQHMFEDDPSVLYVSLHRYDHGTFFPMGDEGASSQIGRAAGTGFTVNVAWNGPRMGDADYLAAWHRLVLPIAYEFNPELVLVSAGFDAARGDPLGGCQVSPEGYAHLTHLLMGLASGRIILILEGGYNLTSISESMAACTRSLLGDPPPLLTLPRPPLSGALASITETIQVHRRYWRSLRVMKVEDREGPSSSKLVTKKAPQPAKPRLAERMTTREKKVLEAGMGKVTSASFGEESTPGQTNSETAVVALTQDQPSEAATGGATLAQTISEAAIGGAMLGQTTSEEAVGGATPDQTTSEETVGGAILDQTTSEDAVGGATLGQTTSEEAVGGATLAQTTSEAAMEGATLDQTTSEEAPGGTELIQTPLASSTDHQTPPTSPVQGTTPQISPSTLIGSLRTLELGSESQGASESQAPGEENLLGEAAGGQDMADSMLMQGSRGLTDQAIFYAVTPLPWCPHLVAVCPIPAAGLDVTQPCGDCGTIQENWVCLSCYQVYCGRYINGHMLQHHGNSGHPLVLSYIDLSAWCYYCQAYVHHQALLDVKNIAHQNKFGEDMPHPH

HCT116 = experiment: MTT cell proliferation assay, HCT116; type: cell-based, human; conditions: Homo sapiens, HCT-116; MTT, 72 h; mean ± SD, triplicate; read-out: IC50 ± SD HCT116
acetyl α-tubulin = experiment: Western blot of acetyl α-tubulin in MCF7 and HCT-116 cells; type: cell-based, human; conditions: 24 h
Description: HDAC6 plays a crucial role in chromatin modulation and deacetylation of α-tubulin, contributing to the expression of oncogenes driving tumorigenesis. Over time, numerous studies have shown HDAC inhibitors (HDACi) as potential anticancer therapeutics. The HDAC6-inhibitory effect of compound 5c was evaluated by analyzing the protein level expression of acetyl α-tubulin in MCF7 and HCT-116 cells treated with 5c by Western blotting.
On the basis of the results obtained from the cell proliferation assay, further experiments were conducted on MCF7 and HCT-116 cells treated with compound 5c. The cells were harvested, and 0.1 × 10^6 cells were seeded in a 12-well cell culture plate and allowed to adhere properly. The cells were then incubated with 0.1 μM and 1 μM concentrations of compound 5c for 24 h. Cells were pelleted in 1× PBS and lysed using ice-cold RIPA buffer. The protein concentration of the lysate was quantified using the Bradford assay and an equal concentration of sample proteins was run on 12% SDS-PAGE and transferred onto 0.45 μm PVDF membrane (Millipore (St. Louis, MO, USA), Immobilon IPVH00010). […]

MCF7 cells = experiment: Annexin V–FITC/PI apoptosis assay by flow cytometry; type: cell-based, human; conditions: MCF7, 0.1 and 1 μM, 24 h
Description: The efficacy of compound 5c to induce apoptosis was determined by annexin V–FITC/PI assay using flow cytometry. MCF7 cells were treated with two different concentrations of 5c as indicated, and the percentages of cells in the apoptotic and necrotic stage were analyzed, as depicted in Figure 8.
The apoptosis assay was performed using an annexin V–FITC Apoptosis detection kit (Sigma-Aldrich, APOAF) according to the manufacturer’s instructions. Cells were harvested, and 0.1 × 10^6 cells were seeded in a six-well cell culture plate and allowed to adhere followed by treatment with DMSO as the control and compound 5c at 0.1 μM and 1 μM concentrations for 24 h. The cells were trypsinized, pelleted down, and resuspended in the 1× buffer provided. The cells were stained using annexin V–FITC/PI and analyzed immediately using flow cytometry. Further analysis and plotting of graphs were conducted using Flowjo 7.6 [53].

With Cc1ccc(-n2c(SCc3ccc(C(=O)NO)cc3)nc3ccccc3c2=O)cc1 [Compound 5c, N-hydroxy-4-(((4-oxo-3-(p-tolyl)-3,4-dihydroquinazolin-2-yl)thio)methyl)benzamide] the IC50 (HDAC6) was 0.58 ± 0.05 µM, the IC50 (HCT116) was 12.4 ± 1.41 µM and the “concentration at which heightened acetylation of α-tubulin starts” value (acetyl α-tubulin) was 0.1 to 1 µM. The “state of cells with increase in concentration” value (MCF7 cells) was “late apoptosis and necrosis”.

Source: paper PMC10341573, “Design, Synthesis, and Biological Evaluation of Novel Quinazolin-4(3H)-One-Based Histone Deacetylase 6 (HDAC6) Inhibitors for Anticancer Activity” (International Journal of Molecular Sciences, 2023)
